According to patent US20240277810A1, “INTERFERONS AND NUCLEAR EXPORT INHIBITORS FOR USE IN METHODS OF TREATING CANCER” (St. Jude Children's Research Hospital, Inc., priority 2021, published 2024):
Entries after “also recorded” stand apart in the source; their conditions may differ.

Key:
[1] = system: endogenous retroelements (EREs); assay: RT-PCR expression of endogenous retroelements (EREs) in BMDMs; format: cell-based, mouse; conditions: wild-type BMDMs, NEI alone
Protocol: RT-PCR Analysis. Total RNA was extracted using TRIZOL® (Thermo Fisher Scientific) and converted into cDNA by using the High-Capacity cDNA Reverse Transcription Kit (Applied Biosystems). Real-time quantitative PCR was performed on an Applied Biosystems 7500 real-time PCR instrument with 2×SYBR™ Green (Applied Biosystems). For ERE expression analysis, 5 μg of total RNA extracted from the cells was dissolved in 46 μl of water and mixed with 3.5 μl NaCl (5 M stock). Then, 0.5 μl RNase A (10 mg/ml stock, Thermo Fisher Scientific) or water (as mock) was added to a total volume of 50 μl and mixed, followed by incubation at room temperature for 10 minutes. Then 1 ml acid-guanidinium-phenol based reagent sold under the tradename TRIZOL® was directly added to the mixture to terminate digestion, and the RNA was extracted. The RNA transcripts of selected endogenous retroelements (EREs) were measured by RT-PCR with GAPDH as an internal control. The ratios of (ERE/GAPDH)RNAase-A/(ERE/GAPDH)mock were calculated as fold enrichment.

endogenous dsRNA = assay: dsRNA by J2 antibody dot-blot analysis and immunofluorescence in BMDMs; format: cell-based, mouse; conditions: for amount of dsRNA: Adar1−/− BMDMs; for amount of dsRNA compared with media-treated cells: wild-type BMDMs
Protocol: Dot Blot Analysis. For dsRNA analysis, total RNA was isolated from the cells. Equal volumes (2 μl containing 1 μg of RNA) of the RNA were dotted on HYBONDO N+ membrane (GE Healthcare), dried and auto crosslinked in a UV Stratalinker 2400 (Stratagene) two times. The membrane was then blocked in 5% milk in TBST for 1 hour and probed with J2 antibody (1:1000, Scicons) at 4° C. overnight. On the next day, the membrane was washed with TBST 3 times and probed with secondary goat-anti-mouse HRP antibody in 5% milk at room temperature for 1 hour. The total […] was detected using methylene blue.
Immunofluorescence Staining. BMDMs were washed with phosphate-buffered saline (PBS) and fixed in 4% paraformaldehyde for 15 minutes at room temperature, followed by permeabilization for 10 minutes in 0.5% TRITON® X-100 (2-[4-(2,4,4-trimethylpentan-2-yl)phenoxy]ethanol). Cells were blocked in 5% normal goat serum (Life Technologies) for 1 hour at room temperature. Samples were incubated with anti-ZBP1 antibody (1:250 dilution, Adipogen) or anti-J2 antibody (1:100, Millipore) overnight at 4° C. Cells were then washed three times with PBS and incubated with ALEXA FLUOR® 647 fluorescent dye-conjugated antibody against mouse immunoglobulin G (1:250, Invitrogen) and counterstained with DAPI (4′,6-diamidino-2-phenylindol, Life Technologies) for 1 hour at room temperature. Cells were washed three times with PBS and imaged using a Leica SP8 confocal microscope.

[2] = system: bone marrow-derived macrophages (BMDMs); assay: Cell death in BMDMs quantified by propidium iodide staining (real-time imaging); format: cell-based, mouse; conditions: for cell death compared with wild-type cells: Adar1−/− BMDMs; for cell death (PI staining): wild-type BMDMs, 24 hours, 5 μM KPT-330 or 5 ng/ml leptomycin B, with or without 50 ng/mL IFN-β or IFN-γ
Protocol: (§1) Cell Culture. Primary mouse bone marrow-derived macrophages (BMDMs) were generated from the bone marrow of wild-type and the indicated mutant mice. Cells were grown for 5-6 days in Iscove's Modified Dulbecco's Media (IMDM, Thermo Fisher Scientific) supplemented with 1% non-essential amino acids (Thermo Fisher Scientific), 10% fetal bovine serum (FBS, Biowest), 30% L929-conditioned media, and 1% penicillin and streptomycin (Thermo Fisher Scientific). BMDMs were then seeded into antibiotic-free media at a concentration of 1×10^6 cells into 12-well plates and incubated overnight.
(§2) Cell Stimulation. BMDMs were treated with 5 μM of KPT-330 (Selleckchem) or 5 ng/ml of leptomycin B (Sigma) in the presence and absence of 50 ng/mL of IFN-γ (Peprotech) or 50 ng/mL of IFN-β (PBL Assay) for 12 or 24 hours, as indicated.
Real-time Imaging for Cell Death. The kinetics of cell death were determined using the INCUCYTE® S3 (Essen BioScience) live-cell analysis system. BMDMs (5×10^5 cells/well) were seeded in 24-well tissue culture plates. Cells were treated with the indicated stimuli and stained with propidium iodide (PI; Life Technologies) following the manufacturer's protocol. The plate was scanned, and fluorescent and phase-contrast images (4 image fields/well) were acquired in real-time every 1 hour from 0 to 24 hours post-treatment. PI-positive dead cells are marked with a red mask for visualization. The image analysis, masking, and quantification of dead cells were done using the software package supplied with the INCUCYTE® imager.

BMDMs = assay: Immunoblot analysis of pyroptosis, apoptosis and necroptosis (PANoptosis) molecules in BMDMs; format: cell-based, mouse; conditions: for cleavage of caspase-1 and activation of GSDME, caspase-8, -3, -7 and MLKL: Adar1−/− BMDMs, NEI alone
Protocol: as §1, §2
Immunoblot Analysis. Cell lysates and culture supernatants were combined in caspase lysis buffer (containing 1× protease inhibitors (Roche), 1× phosphatase inhibitors (Roche), 10% NP-40, and 25 mM DTT) and 4× sample loading buffer (containing SDS and 2-mercaptoethanol) for immunoblot analysis of caspases. For immunoblot analysis of signaling components, supernatants were removed, and cells were washed once with Dulbecco's phosphate-buffered saline (DPBS, Thermo Fisher Scientific), followed by lysis in radioimmunoprecipitation assay (RIPA) buffer and sample loading buffer. Proteins were separated by electrophoresis through 8-12% polyacrylamide gels. Following electrophoretic transfer of proteins onto polyvinylidene fluoride (PVDF) membranes (Millipore), nonspecific binding was blocked by incubation with 5% skim milk, then membranes were incubated with primary antibodies against: caspase-3 (Cell Signaling Technology (CST), 1:1000), cleaved caspase-3 (CST, 1:1000), caspase-7 (CST, 1:1000), cleaved caspase-7 (CST, 1:1000), caspase-8 (AdipoGen, 1:1000), cleaved caspase-8 CST, 1:1000), caspase-11 (Novus Biologicals, 1:1000), caspase-1 (AdipoGen, 1:1000), GAPDH (CST, 1:1000), ZBP1 (AdipoGen, 1:1000), pMLKL (CST, 1:1000), tMLKL (Abgent, 1:1000), ADAR1 (Santa Cruz Biotechnology, 1:500), tRIPK1 (CST, 1:1000), GSDMD (Abcam, 1:1000), GSDME (Abcam, 1:1000), RIPK3 (CST, 1:1000), pSTAT1 (CST, 1:1000), tSTAT (CST, 1:1000), pIRF3 (CST, 1:1000), HA (Millipore, 1:1000), β-actin (Proteintech, 1:1000). Membranes were then washed and incubated with the appropriate horseradish peroxidase (HRP)-conjugated secondary antibodies (Jackson ImmunoResearch Laboratories; anti-rabbit, 1:5000; anti-mouse 1:5000; and anti-rat, 1:5000). Proteins were visualized using Immobilon Forte Western HRP Substrate (Millipore).

B16-F10 melanoma cells = assay: B16-F10 melanoma model in mice; format: in vivo, mouse; conditions: wild-type mice; KPT-330 15 mg/kg oral, IFN-γ 10 μg or IFN-α/IFN-β 1 μg i.p., days 8, 10 and 13 after implantation
Protocol: Melanoma Model. The mouse melanoma cell line B16-F10 (ATCCR CRL-6322™) was cultured in a humidified, 5% CO2 incubator at 37° C., and grown in Dulbecco's Modified Eagle Medium (DMEM) with 10% FBS and 100 U/mL penicillin/streptomycin. Male and female 6-12-week-old mice were shaved on their lower back and engrafted with B16-F10 melanoma cells by subcutaneously injecting 1×10^6 cells in 200 μL PBS. Tumors were measured with digital calipers, and tumor volume was calculated using the formula: volume=(length×width^2)×½. For treatment with IFN-γ (Peprotech), each mouse was injected interperitoneally with 10 μg of IFN-γ in 100 μl of saline. For treatment with IFN-α or IFN-β, each mouse was injected interperitoneally with 1 μg of IFN-α or IFN-β. For treatment with KPT-330 (Selleckchem), each mouse was orally administered 300 μl of KPT-330 (15 mg/kg) suspended in 0.6% polyoxyalkylene ether sold under the tradename PLURONIC® (Gibco) and 0.6% polyvinylpyrrolidone. The treatment was given on days 8, 10 and 13 after tumor implantation.

ZBP1 = assay: Co-immunoprecipitation of ZBP1 with ADAR1 and RIPK3 in BMDMs; format: cell-based, mouse; conditions: wild-type BMDMs, 12 hours
Protocol: Co-Immunoprecipitation Assay. BMDMs (10×10^6 cells) were seeded into 10-cm dishes and treated with IFN-β or KPT-330 or combination of IFN-β and KPT-330 for 12 hours. Then, the cells were lysed in a buffer containing 20 mM Tris-HCl (pH 7.4), 100 mM NaCl, 30 mM KCl, and 0.1% NP-40. After centrifugation at 16,000 g for 10 minutes, the lysates were incubated with anti-ZBP1 antibody (AdipoGen) with protein A/G PLUS-Agarose (Santa Cruz Biotechnology) for overnight incubation at 4° C. After washing with the above buffer, the immunoprecipitated proteins were harvested by boiling in 1×SDS loading buffer at 100° C. for 5 minutes.

| Molecule | expression of EREs (Mus-D, Line1, ERV-L) [1] | amount of dsRNA (endogenous dsRNA) | amount of dsRNA compared with media-treated cells (endogenous dsRNA) | cell death compared with wild-type cells [2] | cell death (PI staining) [2] | cleavage of caspase-1 and activation of GSDME, caspase-8, -3, -7 and MLKL (BMDMs) | apoptosis: cleavage of caspase-8, -3 and -7 (BMDMs; wild-type BMDMs) | cleavage of GSDME (pyroptosis) (BMDMs; wild-type BMDMs) | phosphorylation of MLKL (necroptosis) (BMDMs; wild-type BMDMs) | melanoma tumor growth / regression (B16-F10 melanoma cells) | interaction of ZBP1 with ADAR1 (ZBP1) | interaction of ZBP1 with RIPK3 (ZBP1) | expression of ZBP1 / ADAR1 (BMDMs; wild-type BMDMs) |
| --- | --- | --- | --- | --- | --- | --- | --- | --- | --- | --- | --- | --- | --- |
| CCC(=C/[C@H](C)C/C=C/C(C)=C/[C@@H](C)C(=O)[C@@H](C)[C@H](O)[C@@H](C)C/C(C)=C/C(=O)O)/C=C/[C@@H]1OC(=O)C=C[C@@H]1C [LMB, Leptomycin B] | slightly upregulated | An increase in the amount of dsRNA | slightly increased the amounts of dsRNA | increased cell death | low level of cell death | increased cleavage of caspase-1 and activation | induced apoptosis | displayed cleavage of GSDME | low level of phosphorylation of MLKL |  |  |  |  |
| O=C(/C=C\n1cnc(-c2cc(C(F)(F)F)cc(C(F)(F)F)c2)n1)NNc1cnccn1 [KPT-330, selinexor] | slightly upregulated | An increase in the amount of dsRNA | slightly increased the amounts of dsRNA | increased cell death | low level of cell death | increased cleavage of caspase-1 and activation | induced apoptosis | displayed cleavage of GSDME | low level of phosphorylation of MLKL | reduced melanoma growth | some interaction | some interaction |  |
| IFN-β: type I interferon (PBL Assay), 50 ng/mL in cells, 1 μg per mouse (protein, listed as Homo sapiens) MTNKCLLQIALLLCFSTTALSMSYNLLGFLQRSSNFQCQKLLWQLNGRLEYCLKDRMNFDIPEEIKQLQQFQKEDAALTIYEMLQNIFAIFRQDSSSTGWNETIVENLLANVYHQINHLKTVLEEKLEKEDFTRGKLMSSLHLKRYYGRILHYLKAKEYSHCAWTIVRVEILRNFYFINRLTGYLRN |  |  |  |  |  |  |  |  |  |  | robust interaction |  | induced ZBP1 expression; also recorded: upregulated |
